According to patent US20230121086A1, “RORgT INHIBITOR, PREPARATION METHOD THEREOF AND USE THEREOF” (SUNSHINE LAKE PHARMA CO., LTD., priority 2020, published 2023):

These compounds were tested against T1, RORγt (Homo sapiens, UniProt P51449) (assay: Fluorescence resonance energy transfer (FRET) test, inhibitory activity of RORγt). Conditions: FRET, B-RORγt LBD / Biotin-SRC1; read-out: IC50.
T1 construct: […]
T1 sequence (P51449 269-508 limits assumed): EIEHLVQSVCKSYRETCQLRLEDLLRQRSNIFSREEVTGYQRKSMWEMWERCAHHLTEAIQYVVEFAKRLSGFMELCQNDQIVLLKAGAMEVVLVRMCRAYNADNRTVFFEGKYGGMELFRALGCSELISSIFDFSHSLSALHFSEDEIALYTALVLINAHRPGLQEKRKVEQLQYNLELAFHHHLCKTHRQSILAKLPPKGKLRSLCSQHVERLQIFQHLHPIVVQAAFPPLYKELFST
Type: biochemical

SMILES | IC50 [nM]
CCS(=O)(=O)c1ccc([C@H](CC#N)NC(=O)c2ccc(N3CC(Oc4ccc(C(F)(F)F)cc4)C[C@H]3COC(F)F)cc2)cc1 (single isomer, unassigned) [Example 74] | 70
CCS(=O)(=O)c1ccc([C@@H](CC#N)NC(=O)c2ccc(N3CC(Oc4ccc(C(F)(F)F)cc4)C[C@H]3COC(F)F)cc2)cc1 (stereo in doubt) [Example 48, N-((R)-2-cyano-1-(4-(ethylsulfonyl)phenyl)ethyl)-4-((2S,4S)-2-((difluoromethoxy)methyl)-4-(4-(trifluoromethyl)phenoxy)pyrrolidin-1-yl)benzamide] | 8
CCS(=O)(=O)c1ccc([C@H](CC#N)NC(=O)c2ccc(N3CC(Oc4ccc(C(F)(F)F)cc4)C[C@H]3COC(F)F)cc2)nc1 (stereo in doubt) [Example 49, N-((S)-2-cyano-1-(5-(ethylsulfonyl)pyridin-2-yl)ethyl)-4-((2S,4S)-2-((difluoromethoxy)methyl)-4-(4-(trifluoromethyl)phenoxy)pyrrolidin-1-yl)benzamide] | 28
CCS(=O)(=O)c1ccc([C@H](CC#N)NC(=O)c2cnc(N3CC(Oc4ccc(C(F)(F)F)cc4)C[C@H]3COC(F)F)c(F)c2)cc1 (stereo in doubt) [Example 50, N-((S)-2-cyano-1-(4-(ethylsulfonyl)phenyl)ethyl)-6-((2S,4S)-2-((difluoromethoxy)methyl)-4-(4-(trifluoromethyl)phenoxy)pyrrolidin-1-yl)-5-fluoronicotinamide] | 16
CCS(=O)(=O)c1ccc([C@H](CCC#N)NC(=O)c2ccc(N3CC(Oc4ccc(C(F)(F)F)cc4)C[C@H]3COC(F)F)cc2)cc1 (stereo in doubt) [Example 51, N-((S)-3-cyano-1-(4-(ethylsulfonyl)phenyl)propyl)-4-((2S,4S)-2-((difluoromethoxy)methyl)-4-(4-(trifluoromethyl)phenoxy)pyrrolidin-1-yl)benzamide] | 14
CCS(=O)(=O)c1ccc([C@H](CC#N)NC(=O)c2ccc(N3CC(Oc4ccc(C(F)(F)F)nc4)C[C@H]3COC(F)F)cc2)cc1 (stereo in doubt) [Example 57, N-((S)-2-cyano-1-(4-(ethylsulfonyl)phenyl)ethyl)-4-((2S,4S)-2-((difluoromethoxy)methyl)-4-((6-(trifluoromethyl)pyridine-3-yl)oxy)pyrrolidin-1-yl)benzamide] | 41
CCS(=O)(=O)c1ccc([C@H](CC#N)NC(=O)c2ccc(N3CC(Oc4ccc(C(F)(F)F)cc4)C[C@H]3COC(F)F)cc2F)cc1 (stereo in doubt) [Example 59, N-((S)-2-cyano-1-(4-(ethylsulfonyl)phenyl)ethyl)-4-((2S,4S)-2-((difluoromethoxy)methyl)-4-(4-(trifluoromethyl)phenoxy)pyrrolidin-1-yl)-2-fluorobenzamide] | 47
CCS(=O)(=O)c1ccc([C@H](CC#N)NC(=O)c2ccc(N3CC(Oc4ccc(C(F)(F)F)cc4)C[C@H]3COC(F)F)c(OC)c2)cc1 (stereo in doubt) [Example 60, N-((S)-2-cyano-1-(4-(ethylsulfonyl)phenyl)ethyl)-4-((2S,4S)-2-((difluoromethoxy)methyl)-4-(4-(trifluoromethyl)phenoxy)pyrrolidin-1-yl)-3-methoxybenzamide] | 81
CCS(=O)(=O)c1ccc([C@H](CC#N)NC(=O)c2ccc(N3CC(Oc4ccc(OC)cc4)C[C@H]3COC(F)F)cc2)cc1 (stereo in doubt) [Example 63, N-((S)-2-cyano-1-(4-(ethylsulfonyl)phenyl)ethyl)-4-((2S,4S)-2-((difluoromethoxy)methyl)-4-(4-methoxyphenoxy)pyrrolidin-1-yl)benzamide] | 7
CCS(=O)(=O)c1ccc([C@H](CC#N)NC(=O)c2ccc(N3CC(Oc4ccc(C(F)(F)F)cc4)C[C@H]3COC(F)(F)F)cc2)cc1 (stereo in doubt) [Example 70, N-((S)-2-cyano-1-(4-(ethylsulfonyl)phenyl)ethyl)-4-((2S,4S)-2-((trifluoromethoxy)methyl)-4-(4-(trifluoromethyl)phenoxy)pyrrolidin-1-yl)benzamide] | 26
CCS(=O)(=O)c1ccc([C@H](CC#N)NC(=O)c2cnc(N3CC(Oc4ccc(C(F)(F)F)cc4)C[C@H]3COC(F)(F)F)nc2)cc1 (stereo in doubt) [Example 72, N-((S)-2-cyano-1-(4-(ethylsulfonyl)phenyl)ethyl)-2-((2S,4S)-2-((trifluoromethoxy)methyl)-4-(4-(trifluoromethyl)phenoxy)pyrrolidin-1-yl)pyrimidine-5-carboxamide] | 34
CCS(=O)(=O)c1ccc(C(CC#N)NC(=O)c2ccc(N3CC(c4ccc(C(F)(F)F)cc4)C[C@H]3COC(F)F)cc2)cc1 (stereo in doubt) [Example 81, N—((S)-2-cyano-1-(4-(ethylsulfonyl)phenyl)ethyl)-4-((2S,4S)-2-((difluoromethoxy)methyl)-4-(4-(trifluoromethyl)phenyl)pyrrolidin-1-yl)benzamide] | 44
CCS(=O)(=O)c1ccc([C@H](CC#N)NC(=O)c2ccc(N3CCC(Oc4ccc(C(F)(F)F)cc4)C3)c(F)c2)cc1 (stereo in doubt) [Example 83, N-((S)-2-cyano-1-(4-(ethylsulfonyl)phenyl)ethyl)-3-fluoro-4-((S)-3-(4-(trifluoromethyl)phenoxy)pyrrolidin-1-yl)benzamide] | 91
CCS(=O)(=O)c1ccc([C@H](CC#N)NC(=O)c2ccc(N3C[C@@H](Oc4ccc(-n5ccnc5)cc4)C[C@H]3COC(F)F)cc2)cc1 [Example 5, 4-((2S,4S)-4-(4-(1H-imidazol-1-yl)phenoxy)-2-((difluoromethoxy)methyl)pyrrolidin-1-yl)-N-((S)-2-cyano-1-(4-(ethylsulfonyl)phenyl)ethyl)benzamide] | 36.1
CCS(=O)(=O)c1ccc([C@H](CC#N)NC(=O)c2ccc(N3C[C@@H](Oc4ccc(N)cc4)C[C@H]3COC(F)F)cc2)cc1 [Example 7, 4-((2S,4S)-4-(4-aminophenoxy)-2-((difluoromethoxy)methyl)pyrrolidin-1-yl)-N-((S)-2-cyano-1-(4-(ethylsulfonyl)phenyl)ethyl)benzamide] | 57.5
CCS(=O)(=O)c1ccc([C@H](CC#N)NC(=O)c2ccc(N3C[C@@H](Oc4ccc(OC(F)(F)F)cn4)C[C@H]3COC(F)F)cc2)cc1 [Example 8, N-((S)-2-cyano-1-(4-(ethylsulfonyl)phenyl)ethyl)-4-((2S,4S)-2-((difluoromethoxy)methyl)-4-((5-(trifluoromethoxy)pyridin-2-yl)oxy)pyrrolidin-1-yl)benzamide] | 18.8
CCS(=O)(=O)c1ccc([C@H](CC#N)NC(=O)c2ccc(N3C[C@@H](Oc4ccc(OC(F)F)nc4)C[C@H]3COC(F)F)cc2)cc1 [Example 9, N-((S)-2-cyano-1-(4-(ethylsulfonyl)phenyl)ethyl)-4-((2S,4S)-2-((difluoromethoxy)methyl)-4-((6-(difluoromethoxy)pyridin-3-yl)oxy)pyrrolidin-1-yl)benzamide] | 25.8
CCS(=O)(=O)c1ccc([C@H](CC#N)NC(=O)c2ccc(N3C[C@@H](Oc4ccc(OC)nc4)C[C@H]3COC(F)F)cc2)cc1 [Example 10, N-((S)-2-cyano-1-(4-(ethylsulfonyl)phenyl)ethyl)-4-((2S,4S)-2-((difluoromethoxy)methyl)-4-((6-methoxypyridine-3-yl)oxy)pyrrolidin-1-yl)benzamide] | 19
CCS(=O)(=O)c1ccc([C@H](CC#N)NC(=O)c2ccc(N3C[C@@H](Oc4ccc(OC(F)(F)F)nc4)C[C@H]3COC(F)F)cc2)cc1 [Example 11, N-((S)-2-cyano-1-(4-(ethylsulfonyl)phenyl)ethyl)-4-((2S,4S)-2-((difluoromethoxy)methyl)-4-((6-(trifluoromethoxy)pyridin-3-yl)oxy)pyrrolidin-1-yl)benzamide] | 27
CCS(=O)(=O)c1ccc([C@@H](CC#N)NC(=O)c2ccc(N3C[C@@H](Oc4ccc(OC(F)F)cc4)C[C@H]3COC(F)F)cc2)cc1 [Example 12, N-((R)-2-cyano-1-(4-(ethylsulfonyl)phenyl)ethyl)-4-((2S,4S)-2-((difluoromethoxy)methyl)-4-(4-(difluoromethoxy)phenoxy)pyrrolidin-1-yl)benzamide] | 21.5
CCS(=O)(=O)c1ccc([C@H](CC#N)NC(=O)c2ccc(N3C[C@@H](Oc4ccc(OC(F)F)cc4)C[C@H]3COC(F)F)cc2)nc1 [Example 13, N-((S)-2-cyano-1-(5-(ethylsulfonyl)pyridin-2-yl)ethyl)-4-((2S,4S)-2-((difluoromethoxy)methyl)-4-(4-(difluoromethoxy)phenoxy)pyrrolidin-1-yl)benzamide] | 31.4
CCS(=O)(=O)c1ccc([C@H](CC#N)NC(=O)c2ccc(N3C[C@@H](Oc4ccc(C)nc4)C[C@H]3COC(F)F)cc2)cc1 [Example 15, N-((S)-2-cyano-1-(4-(ethylsulfonyl)phenyl)ethyl)-4-((2S,4S)-2-((difluoromethoxy)methyl)-4-((6-methylpyridin-3-yl)oxy)pyrrolidin-1-yl)benzamide] | 78.7
CCS(=O)(=O)c1ccc([C@@H](CC#N)NC(=O)c2ccc(N3C[C@@H](Oc4ccc(OC(F)(F)F)cn4)C[C@H]3COC(F)F)cc2)cc1 [Example 17, N-((R)-2-cyano-1-(4-(ethylsulfonyl)phenyl)ethyl)-4-((2S,4S)-2-((difluoromethoxy)methyl)-4-((5-(trifluoromethoxy)pyridin-2-yl)oxy)pyrrolidin-1-yl)benzamide] | 14.9
CCS(=O)(=O)c1ccc([C@H](CC#N)NC(=O)c2ccc(N3C[C@@H](Oc4ccc(OC(F)(F)F)cn4)C[C@H]3COC(F)F)nc2)cc1 [Example 18] | 25.9
